Source: patent publication US9758538B2, “Pyrimidine derivatives” (PFIZER INC., priority 2015, dated 2017)

Target: truncated PI3Kα (p110α/iSH2 p85α), PI3KA_Act (Homo sapiens (Human), UniProt P42336)
Test: PI3Kα biochemical kinase assay, fluorescence polarization format (PI3KA_Act)
Conditions: 0.5 nM p110α/iSH2 p85, 1 mM ATP, 30 μM PIP2, 15-min preincubation; Morrison equation fit; read-out: PI3KA_Act Ki
In short: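 Enzyme: His-tagged p110α/p85α niSH2 complex from Sf21 baculovirus expression, IMAC-purified, tag cleaved, then SEC. Reactions ran 30 min at room temperature, stopped with 10 mM EDTA pH 8 (final), and were read by fluorescence polarization.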

truncated PI3Kα (p110α/iSH2 p85α), PI3KA_Act, sequence (P42336 whole entry, the tested form may be a part): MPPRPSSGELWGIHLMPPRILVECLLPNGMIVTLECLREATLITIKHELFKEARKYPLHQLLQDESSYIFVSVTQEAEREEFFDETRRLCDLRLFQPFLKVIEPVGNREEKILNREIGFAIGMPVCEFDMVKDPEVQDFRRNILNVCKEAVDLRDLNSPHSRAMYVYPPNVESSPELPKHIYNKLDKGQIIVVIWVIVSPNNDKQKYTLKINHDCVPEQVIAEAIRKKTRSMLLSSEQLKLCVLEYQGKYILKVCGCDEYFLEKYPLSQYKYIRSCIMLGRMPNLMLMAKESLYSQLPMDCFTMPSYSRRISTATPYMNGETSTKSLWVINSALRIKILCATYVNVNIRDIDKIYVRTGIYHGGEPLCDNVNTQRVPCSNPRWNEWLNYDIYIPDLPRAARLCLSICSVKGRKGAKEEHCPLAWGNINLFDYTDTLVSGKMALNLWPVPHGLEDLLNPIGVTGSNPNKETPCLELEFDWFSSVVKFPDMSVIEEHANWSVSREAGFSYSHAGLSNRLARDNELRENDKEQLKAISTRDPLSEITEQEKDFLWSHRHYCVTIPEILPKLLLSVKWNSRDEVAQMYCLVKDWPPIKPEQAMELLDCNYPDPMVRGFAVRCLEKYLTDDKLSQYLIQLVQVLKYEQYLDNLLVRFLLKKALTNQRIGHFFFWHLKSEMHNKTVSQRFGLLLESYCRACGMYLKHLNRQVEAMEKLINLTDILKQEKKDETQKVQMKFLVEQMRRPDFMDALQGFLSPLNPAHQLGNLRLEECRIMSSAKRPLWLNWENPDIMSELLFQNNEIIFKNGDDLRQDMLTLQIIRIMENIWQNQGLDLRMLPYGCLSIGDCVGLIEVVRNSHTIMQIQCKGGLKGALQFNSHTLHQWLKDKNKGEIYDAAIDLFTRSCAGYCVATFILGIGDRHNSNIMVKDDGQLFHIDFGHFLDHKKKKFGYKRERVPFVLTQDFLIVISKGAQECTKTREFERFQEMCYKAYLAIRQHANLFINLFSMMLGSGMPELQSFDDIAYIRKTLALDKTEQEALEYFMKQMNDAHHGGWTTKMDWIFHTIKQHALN

Ki [nM]	SMILES
0.489	Nc1ncc(-c2cc(NC3(CF)CCN(C(=O)OCc4ccccc4)C3)nc(N3CCOCC3)n2)cn1 (stereo not drawn) [Example 105, benzyl 3-{[2′-amino-2-(morpholin-4-yl)-4,5′-bipyrimidin-6-yl]amino}-3-(fluoromethyl)pyrrolidine-1-carboxylate]
0.23	CC(C)C(=O)N1CC[C@](C)(Nc2nc(N3CCOCC3)nc(-c3cnc(N)nc3)c2F)C1 [Example 107, 1-[(3S)-3-{[2′-amino-5-fluoro-2-(morpholin-4-yl)-4,5′-bipyrimidin-6-yl]amino}-3-methylpyrrolidin-1-yl]-2-methylpropan-1-one]
0.036	CC(C)(C)OC(=O)N1CC[C@](C)(Nc2nc(N3CCOCC3)nc(-c3cnc(N)nc3)c2F)C1 [Example 108, tert-butyl (3S)-3-{[2′-amino-5-fluoro-2-(morpholin-4-yl)-4,5′-bipyrimidin-6-yl]amino}-3-methylpyrrolidine-1-carboxylate]
0.072	CC(C)(C)OC(=O)N1CCC(CF)(Nc2cc(-c3cnc(N)nc3)nc(N3CCOCC3)n2)C1 (stereo not drawn) [Example 110, tert-butyl 3-{[2′-amino-2-(morpholin-4-yl)-4,5′-bipyrimidin-6-yl]amino}-3-(fluoromethyl)pyrrolidine-1-carboxylate]
< 0.018	C[C@H]1COCCN1c1nc(N[C@@]2(CO)CCN(C(=O)OC(C)(C)C)C2)c(F)c(-c2cnc(N)nc2)n1 [Example 111, tert-butyl (3S)-3-({2′-amino-5-fluoro-2-[(3S)-3-methylmorpholin-4-yl]-4,5′-bipyrimidin-6-yl}amino)-3-(hydroxymethyl)pyrrolidine-1-carboxylate]
3.23	CCOC(=O)N1CC[C@](COC(C)=O)(Nc2cc(-c3cnc(N)nc3)nc(N3CCOCC3)n2)C1 [Example 113, ethyl (3S)-3-[(acetyloxy)methyl]-3-{[2′-amino-2-(morpholin-4-yl)-4,5′-bipyrimidin-6-yl]amino}pyrrolidine-1-carboxylate]

Further lines, the compound ahead of its results:

SMILES	Ki [nM]
CC(=O)N1CC[C@](C)(Nc2nc(N3CCOCC3)nc(-c3cnc(N)nc3)c2F)C1 [Example 106, 1-[(3S)-3-{[2′-amino-5-fluoro-2-(morpholin-4-yl)-4,5′-bipyrimidin-6-yl]amino}-3-methylpyrrolidin-1-yl]ethanone]	0.12
C[C@H]1COCCN1c1nc(N[C@@]2(CO)CCNC2)c(F)c(-c2cnc(N)nc2)n1 [Example 112, [(3S)-3-({2′-amino-5-fluoro-2-[(3S)-3-methylmorpholin-4-yl]-4,5′-bipyrimidin-6-yl}amino)pyrrolidin-3-yl]methanol]	1.01
COC(=O)N1CC[C@](CO)(Nc2nc(N3CCOC[C@@H]3C)nc(-c3cnc(N)nc3)c2F)C1 [Example 114, methyl (3S)-3-({2′-amino-5-fluoro-2-[(3S)-3-methylmorpholin-4-yl]-4,5′-bipyrimidin-6-yl}amino)-3-(hydroxymethyl)pyrrolidine-1-carboxylate]	< 0.018
Nc1ncc(-c2nc(N3CCOCC3)nc(N[C@@]3(CO)CCN(C(=O)C4(F)CCC4)C3)c2F)cn1 [Example 115, [(3S)-3-{[2′-amino-5-fluoro-2-(morpholin-4-yl)-4,5′-bipyrimidin-6-yl]amino}-3-(hydroxymethyl)pyrrolidin-1-yl](1-fluorocyclobutyl)methanone]	0.036
C[C@H]1COCCN1c1nc(N[C@@]2(CO)CCN(C(=O)OC3CC3)C2)c(F)c(-c2cnc(N)nc2)n1 [Example 117, cyclopropyl (3S)-3-({2′-amino-5-fluoro-2-[(3S)-3-methylmorpholin-4-yl]-4,5′-bipyrimidin-6-yl}amino)-3-(hydroxymethyl)pyrrolidine-1-carboxylate]	< 0.018
CCOC(=O)N1CC[C@](CO)(Nc2nc(-c3cnc(N)nc3)nc(N3CCOC[C@@H]3C)n2)C1 [Example 118, ethyl (3S)-3-({4-(2-aminopyrimidin-5-yl)-6-[(3S)-3-methylmorpholin-4-yl]-1,3,5-triazin-2-yl}amino)-3-(hydroxymethyl)pyrrolidine-1-carboxylate]	< 0.018
